Source: US20230277863A1, “Use Of Photosensitizers For Treatment Of Viral Respiratory Infections” (priority 2020, published 2023)

Legend:
SARS-CoV-2 = assay: Treatment of a human subject suffering from COVID-19; type: in vivo; conditions: one patient, 3 days, every 6 hours
BCoV strain L9 = assay: Inactivation of bovine coronavirus in infected U373 cells, photosensitizer plus 810 nm laser irradiation; conditions: for residual virus: 100 joule/cm^2, 0.3 watt/cm^2
bovine coronavirus = assay: Inactivation of bovine coronavirus in infected cells using non-coherent LED light; type: cell-based; conditions: broadband LED light (non-coherent), 10000 Lux, 2 min of irradiation
Experimental: In a further set of experiments, the U737 cells were treated under the conditions as shown in the table of FIG. 1 using irradiation with either a monochromatic LED device at 590 nm or a broadband LED device (non-coherent light in each case). Light intensity was 10000 Lux in both cases.

[1] = test system: SARS-CoV-2/Germany strain; assay: Inactivation of SARS-CoV-2 in infected Vero E6 cells, methylene blue plus broadband LED irradiation; conditions: for mean reduction factor (RF): broadband LED (Ledlenser P6), SARS-CoV-2-infected Vero E6 cells; for inactivation of the SARS-CoV-2: corresponds to the mean RF
[2] = 0.01% photosensitizer, without radiation, immediately wrapped in aluminium foil, stored and frozen in the dark

CN(C)c1ccc2nc3ccc(=[N+](C)C)cc-3sc2c1 [methylene blue]
PCR SARS-CoV-2 cycle threshold (CT) after treatment (SARS-CoV-2; 3 μg methylene blue nasal/throat spray plus broadband LED ca. 6000 Lux, CT before treatment 19): 35 | condition of patient after treatment (SARS-CoV-2; 3 μg methylene blue spray plus broadband LED, before: dry cough, headache, 38.2° C., medium general condition): no cough, no headache, normalized body temperature, normal general condition | mean reduction factor (BCoV strain L9; 0.0001% (w/v) photosensitizer, 810 nm, 100 joule/cm^2, 0.3 watt/cm^2, 5.46 min, BCoV-infected U373 cells): ≥ 6.00 log10 steps | cytotoxicity (CT) (BCoV strain L9; 0.0001% photosensitizer samples, titration on U373 cells): no cytotoxicity | residual virus (BCoV strain L9; 0.0001% photosensitizer, 810 nm): only minimal residual virus could still be detected in one sample | virus inactivation (BCoV strain L9; 0.0001% photosensitizer, 810 nm, 100 joule/cm^2, corresponds to the mean RF): ≥ 99.999% | reduction factor (RF) (BCoV strain L9; 0.001% (w/v) photosensitizer, 810 nm, 100 joule/cm^2, 0.3 watt/cm^2, 5.46 min, BCoV-infected U373 cells): 5.08 log10 steps | reduction factor (RF) (BCoV strain L9; 0.01% (w/v) photosensitizer, 810 nm, 100 joule/cm^2, 0.3 watt/cm^2, 5.46 min, BCoV-infected U373 cells): 4.08 log10 steps | reduction factor (RF) (BCoV strain L9; [2]): 0.38±0.64 | residual virus / effectiveness (BCoV strain L9; [2]): substantial amounts of residual virus and no effectiveness | reduction factor (RF) (BCoV strain L9; 0.1% (w/v) photosensitizer, 810 nm, 100 joule/cm^2, 0.3 watt/cm^2, 5.46 min, BCoV-infected U373 cells): 3.08 log10 steps | residual virus (BCoV strain L9; 0.1% (w/v) to 0.001% (w/v) photosensitizer, 810 nm): no residual virus was found | reduction of residual virus (bovine coronavirus): 3 log10 steps | mean reduction factor (RF) ([1]; 0.0001% photosensitizer): ≥ 4.67 | inactivation of the SARS-CoV-2 ([1]; 0.0001% photosensitizer): 99.99% | residual virus ([1]; 0.001% or 0.0001% photosensitizer, irradiation 1 minute, 20,000 lx, initial virus titre 6.92 log 10 TCID50/ml, Vero E6 cells): No residual virus was found | mean reduction factor (RF) ([1]; 0.001% photosensitizer): ≥ 4.67 | inactivation of the SARS-CoV-2 ([1]; 0.001% photosensitizer): 99.99%
